We go through five compounds from patent US9581598B2, “Diagnosis and treatment of brain tumor” (Sanford-Burnham Medical Research Institute, priority 2012, dated 2017).

Entries after “also recorded” stand apart in the source; their conditions may differ. Where a SMILES comes first, the peptide text is derived from it. The star is where a group is joined. DTPA(central) = O=C(O)CN(CCN(CCN(CC(=O)O)CC(=O)O)CC(=O)*)CC(=O)O; FITC = O=C1OC2(c3ccc(O)cc3Oc3cc(O)ccc32)c2ccc(NC(=S)*)cc21

One data set has as its system i.c. U87MG tumor. Also on record: species or system mice. Particulars: mouse, in vivo. The procedure:
The DTPA conjugated peptides (20 μg per animal) were mixed with 0.2 M NaAc (pH 5) and 5 MBq of ^111Indiumchloride (^111InCl3, Mallinckrodt, Le Petten, Netherlands) per animal was added to the mixture. The total volume of the solution was calculated to be 100 μl/animal. The reaction mixture was incubated for an hour at RT and the radiochemical purity was measured by using an instant thin-layer chromatography (ITLC-SG, Pall Corporation, USA) on a 13×1.5 cm strip using 0.3 M NaCit (pH 5) as a mobile phase. The radiochemical purity of the peptides was 99-100%.
The imaging studies were performed two weeks post U87MG tumor implantation. For SPECT/CT (single photon emission computed tomography-computed tomography) imaging animals were anesthetized with 1-3% isoflurane in N2/O2 at a 70:30 ratio. The radiolabeled peptide (100 μl) was injected into the tail vein followed by SPECT imaging using a combined small animal SPECT/CT (Gamma Medica Inc., Northridge, Calif.) with dual gamma camera modality. Medium energy parallel hole collimators were used in all gamma imaging with a 171/245/[…] keV energy window for ^111In. Planar two-dimensional imaging for all animals was performed at earliest possible time point after injection with 60 s acquisition time/image up to 30 minutes. For 3D imaging total of 64 projections, (120 s/projection) were used. The matrix size was 80×80 in 125×125 mm^2 field of view (FOV). […]
After the last imaging session animals were sacrificed with CO2 and tissue samples were collected. Major organs and tissues (blood, heart, lungs, liver, spleen, left kidney, duodenum, ovaries, fat, muscle, skin, brain and brain tumor) were weighed, and the radioactivity in each organ or tissue sample was measured in an automated gamma counter (Clinigamma, Turku, Finland). The counts obtained were corrected for the background radiation and physical decay, and tissue radioactivity was expressed as percentage of the injected dose per gram of tissue (% ID/g)±SD.

Another data set relates to i.c HIFko astrocytoma. In words: tissue localization of fluorescein-labeled peptide after i.v. injection. Type of data set: in vivo, mice. The procedure: (§1) Athymic female Balb/c nu-nu mice (4-6 wks) from Taconic Europe were used in all tumor experiments. Establishment of the intracranial tumors has been described (Blouw et al., 2003). In brief, 50 000 HIFko, VEGF+, U87MG, U87-GFP, U87-MDGI-GFP or BT4C tumor cells in phosphate buffered saline (PBS) or DMEM were injected through the skull using a Hamilton syringe (no 84855), 2 mm right from the bregma at the depth of 3 mm in the brain parenchyma. Mice were used for some experiments 10-15 days after tumor cell inoculation. In experiments studying the role of MDGI in tumor progression and invasiveness, mice were used 10-21 days after tumor cell inoculation. To establish subcutaneous tumors, 2-5×10^6 cells were grafted subcutaneously on the abdominal side of the mice (in some experiments) or into the mammary fat pad, in other experiments. All animal studies were conducted according to the guidelines of the Provincial Government of Southern Finland and the protocol was approved by the Experimental Animal Committee.
Intravenously injected fluorescein-labeled peptides ([…]) and antibodies (20 μg/animal) were allowed to circulate for one hour followed by perfusion through the heart with 10 ml of phosphate buffered saline (PBS) and 10 ml of 4% paraformaldehyde (PFA) in PBS. Tumors and organs were excised, PFA-fixed and soaked in 30% sucrose (w/v) overnight. Tissues were frozen in the OCT embedding medium (Tissue-Tek). Sections (5-10 μm) were cut for histological analyses. To detect the in vivo distribution of the fluorescein-labeled peptides, sections were stained with a rabbit anti-FITC antibody (Zymed Laboratories, San Francisco, USA). […] Sections were examined under an inverted fluorescence microscope (Axioplan).

In data set [1] the test system is MDGI-expressing MDA-MB-231 xenografts. In words: homing of fluorescein-labeled peptide after i.v. injection. Type of data set: in vivo, mice. The method, then:
(§2) Intravenously injected fluorescein-labeled peptides (100 μl of 1 mM solution) and antibodies (20 μg/animal) were allowed to circulate for one hour followed by perfusion through the heart with 10 ml of phosphate buffered saline (PBS) and 10 ml of 4% paraformaldehyde (PFA) in PBS. Tumors and organs were excised, PFA-fixed and soaked in 30% sucrose (w/v) overnight. Tissues were frozen in the OCT embedding medium (Tissue-Tek). Sections (5-10 μm) were cut for histological analyses. To detect the in vivo distribution of the fluorescein-labeled peptides, sections were stained with a rabbit anti-FITC antibody (Zymed Laboratories, San Francisco, USA). To visualize blood vessels, MDGI and tumor cells, sections were stained with the rat anti-mouse CD31 (BD Pharmingen), goat or rabbit anti-MDGI (Santa Cruz Biotechnology, USA), or a rabbit anti-SV40 large T antigen (a kind gift from Dr. Hanahan, ISREC, Switzerland) antibodies followed by the Alexa-594 and Alexa-488 conjugated secondary antibodies (Molecular Probes, Eugene, Oreg., USA). Nuclei were visualized with DAPI (Vector Laboratories, Burlingame). Sections were examined under an inverted fluorescence microscope (Axioplan).
To obtain an MDA-MB-231 breast tumor cell line stably expressing the MDGI as a c-Myc fusion protein, cells were transfected with the pcDNA3-9E10-MDGI plasmid as described herein. […]

In data set [2] the test system is astrocytomas overexpressing VEGF. The data set is described as above. Type of data set: in vivo, mice. As to conditions: angiogenic vessels. The procedure: as §1, §2
The test system of data set [3] is orthotopic MDA-MB-231 human breast cancer xenografts. The data set is described as above. The class given is in vivo, mice. As to conditions: intravenous injection; parental MDA-MB-231. The procedure:
as §1, §2

The subject of data set [4] is tumors established from the HIFko cells implanted subcutaneously. Described as above. Type of data set: in vivo, mice. As to conditions: subcutaneous HIFko tumors. The method, then:
as §1, §2

In data set [5] the test system is intracranial U87MG human glioma xenografts. Described as above. The class given is in vivo, mice. Particulars: intravenous injection. The method, then:
as §1, §2

Data set [6] concerns rat BT4C glioma xenografts. Described as above. The class given is in vivo, mice. Particulars: intravenous injection. The procedure: as §1, §2
Data set [7] deals with HifKO murine astrocytoma cells. In words: targeted treatment of tumor bearing mice. Particulars: day 14. The class given is in vivo. The method, then:
Immunocompromised (Balb/c nu/nu) mice were implanted with HifKO murine astrocytoma cells (Blouw et al. 2003). Treatment with saline (PBS), free chlorambusil (Cbl) and targeted drug (chlorambusil conjugated to CooP peptide; CooP—CPP-Cbl, 5 mg/kg) was started at day 5 post-implantation and continued every second day until day 14.

Consider `CC(C)C[C@H](NC(=O)CNC(=O)[C@H](CO)NC(=O)[C@H](CC(C)C)NC(=O)CNC(=O)[C@H](CS)NC(=O)[C@H](C)NC(=O)CN(CCN(CC(=O)O)CC(=O)O)CCN(CC(=O)O)CC(=O)O)C(=O)NCC(=O)N[C@H](C(=O)N[C@@H](C)C(N)=O)C(C)C` [^111In-CooP, metal not drawn] ({DTPA(central)}-ACGLSGLGVA-NH2), for which, in the data set with i.c. U87MG tumor, the “tumor half to healthy brain half ratio” value is given as “up to 20:1”. Further, in the data set on i.c. U87MG tumor (iv, 20 ug), the plasma clearance result is recorded as “rapid”.
With “FITC-CooP: synthetic CooP peptide conjugated to fluorescein (Ac-K(FITC)ACGLSGLGVA-NH2)”, the “peptide localization in tumor” value in the data set on i.c HIFko astrocytoma (100 μM, 100 μl/animal i.v., 60 minutes circulation) was “accumulated in the tumor islets in the brain”. Moreover, in the data set with i.c HIFko astrocytoma (i.v.), the “peptide-derived fluorescence in the kidneys and the choroid plexus” value was “Some peptide-derived fluorescence was observed”. Further, the “peptide in surrounding histologically normal brain or other tissues” value in the data set with i.c HIFko astrocytoma (i.v., 60 minutes circulation) is “not detected”.
As for “NH2-ACGLSGLGVA-CONH2 (H-ACGLSGLGVA-NH2) [CooP peptide, core …]”, the homing to tumor entry in data set [1] is listed as “homed with high efficiency”; in [2], “did not home”; in data set [4], “did not home”; in [5], “homed efficiently”; in data set [6], “to a lesser yet detectable extent”. In addition, the “peptide detected in tumor” value in [3] is reported as “No CooP peptide was detected; also recorded: only negligible amount of the peptide was detected”.
Regarding `CC(C)C[C@H](NC(=O)[C@H](C)NC(=O)[C@H](C)NC(=O)[C@@H](NC(=O)[C@H](CS)NC(=O)[C@H](C)NC(=O)CN(CCN(CC(=O)O)CC(=O)O)CCN(CC(=O)O)CC(=O)O)C(C)C)C(=O)N[C@@H](CC(N)=O)C(=O)N[C@@H](C)C(=O)N[C@@H](CC(=O)O)C(=O)NCC(N)=O` [^111In-labeled control peptide, NH2-ACVAALNADG-CONH2, metal not drawn, reference compound], the “accumulation in the tumor tissue” value in the data set on i.c. U87MG tumor is on record as “No accumulation”.
As to `O=C(O)CCCc1ccc(N(CCCl)CCCl)cc1` [chlorambusil], the “condition of the animals at end of experiment” value in data set [7] was “poor condition of the animals”.
